“Also recorded” adds a separate entry of the source.
Assays:
Rat oligodendrocytes = test: Cell death / SOX10 positive cell survival in cultured rat oligodendrocytes; format: cell-based; conditions: 100 μM vacor for 72 hours vs DMSO
Protocol: Sprague-Dawley neonatal (sp7) rat pups were decapitated following lethal overdose with pentobarbital. The brains were dissected and submerged into Hibernate-A low fluorescence media (Transnetyx Tissue, #HALF). The tissue was cut into 1-mm^3 pieces, washed in HBSS^−/− (Gibco, #11039047), then spun down at 100 g for 1 min at room temperature. To digest the tissue, the tissue was incubated in 34 U/mL papain (Worthington, #LS003127) and 40 μg/mL DNase I (Sigma, #D5025) in HALF, and incubated on an orbital shaker (55 rpm) for 40 min at 37° C. […] To collect the A2B5+ fraction, the MACS MS column (Miltenyi, #130-042-201) was removed from the magnetic stand (Miltenyi, #130-042-102) and cells were flushed from the column with 1 ml of prewarmed OPC medium (DMEM F/12 containing N-Acetyl cysteine (60 μg/ml, Sigma, #A9165), human recombinant insulin (10 ug/ml), sodium pyruvate (1 mM, Thermo Fisher, #11360-070), apo-transferrin (50 μg/ml, Sigma, #T2036), putrescine (16.1 μg/ml, Sigma, #P7505), sodium selenite (40 ng/ml, Sigma, #S5261), progesterone (60 ng/ml, Sigma, #P0130), bovine serum albumin (330 μg/ml, Sigma, #A4919). Cells were counted, then seeded at a density of 20,000 cells/cm^2 on poly-D-lysine (5 μg/ml PDL, Sigma #P6407) coated plates. […]

[1] = LeWitt, 1980; Loreto et al., 2021; cited from earlier work
HEK293 cells = test: Intracellular NAD+ in HEK293 cells (NAD-glo assay); format: cell-based, Human; conditions: 100 μM vacor, 72 hours
Protocol: (§1) Schwann and HEK 293T cells were treated with 100 μM vacor, 250 μM 3AP, or vehicle controls, and collected in media at Oh and 72 h after treatment. Protein was extracted using Pierce™ IP Lysis Buffer supplemented with cOmplete™ Mini EDTA-free Protease Inhibitor Cocktail, and a BCA assay carried out to determine protein concentration. All samples were diluted to 0.5 μg/μL. The NAD-glo assay was performed according to manufacturer's instruction of the NAD^+/NADH-Glo™ assay by Promega (G9071). In short, 25 μL of sample were incubated with 12.5 μL 0.4M HCl at 60° C. for 15 min, before 12.5 μL 0.5M Tris base were added. 10 μL NAD^+ standards or sample were then mixed with 10 μL NAD-glo master mix (1 ml luciferin detection reagent, 5 μl reductase, 5 μl reductase substrate, 5 μl NAD^+ cycling enzyme, 25 μl NAD^+ cycling substrate) and incubated at RT for 40 min. Luminescence was read using a GloMax® Explorer microplate reader and NAD^+ concentrations determined relative to a NAD^+ standard curve.

Schwann cells = test: Intracellular NAD+ in Schwann cells (NAD-glo assay); format: cell-based, mouse; conditions: 100 μM vacor, 72 hours, compared to DMSO control
Protocol: Freshly plated mouse Schwann cells were obtained from P2 sciatic and brachial nerves. Nerves were digested with trypsin and collagenase, centrifuged and plated on laminin/Poly-L-lysine coated glass coverslips in defined medium as previously described (Arthur-Farraj et al., 2011).
as §1, with “Schwann and HEK 293T cells were treated with 100 μM vacor, 250 μM 3AP, or vehicle controls, and collected in media at Oh and 72 h after treatment.” left out

In the case of O=C(NCc1cccnc1)Nc1ccc([N+](=O)[O-])cc1 [vacor, Vacor], the “cell death judged by DAPI nuclear staining and SOX10 immunocytochemistry” value (Rat oligodendrocytes) is listed as “died within hours; also recorded: substantial cell death”, the “neurotoxic effects in humans” value [1] is listed as “severe neurotoxic effects” and the “Intracellular NAD+ levels” value (HEK293 cells) is listed as “decrease”. The “Intracellular NAD+ levels” value (Schwann cells) was “no reduction; also recorded: do not change”.

— patent US20260166017A1, “SARM1 INHIBITORS FOR USE IN THERAPY AND COSMETICS” (priority 2022, published 2026)
